Data published in ChEMBL document CHEMBL5252552, “Defined concatenated α6α1β3γ2 GABAA receptor constructs reveal dual action of pyrazoloquinolinone allosteric modulators” (Bioorg Med Chem, 2019).

Key:
[1] = molecular target: T1, Gamma-aminobutyric acid receptor subunit alpha-6/beta-3/gamma-2 (Rattus norvegicus, UniProt P18508+P30191+P63079); assay: Positive allosteric modulation of rat recombinant GABAA alpha6beta3alpha6-gamma2beta3 receptor expressed in Xenopus laevis oocytes assessed as increase in GABA-induced current amplitude at -80 mV holding potential under more potent phase in presence of GABA EC1 to 1.5 by two-electrode voltage-clamp assay; format: cell-based, Oocyte
T1 sequence (P18508 whole entry): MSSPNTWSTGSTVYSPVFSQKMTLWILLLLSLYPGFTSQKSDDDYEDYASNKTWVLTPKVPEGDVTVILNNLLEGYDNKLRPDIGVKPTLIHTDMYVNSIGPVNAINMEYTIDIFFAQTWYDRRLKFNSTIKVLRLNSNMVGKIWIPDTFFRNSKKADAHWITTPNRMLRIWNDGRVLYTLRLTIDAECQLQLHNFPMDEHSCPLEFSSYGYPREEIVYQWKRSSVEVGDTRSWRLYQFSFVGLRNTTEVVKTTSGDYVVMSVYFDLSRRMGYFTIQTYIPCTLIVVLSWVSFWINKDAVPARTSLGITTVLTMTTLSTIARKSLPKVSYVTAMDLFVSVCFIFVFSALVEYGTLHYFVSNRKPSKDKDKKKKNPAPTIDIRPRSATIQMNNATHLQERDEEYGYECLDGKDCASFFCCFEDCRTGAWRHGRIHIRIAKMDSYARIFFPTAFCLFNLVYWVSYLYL
T1 sequence (P30191 whole entry): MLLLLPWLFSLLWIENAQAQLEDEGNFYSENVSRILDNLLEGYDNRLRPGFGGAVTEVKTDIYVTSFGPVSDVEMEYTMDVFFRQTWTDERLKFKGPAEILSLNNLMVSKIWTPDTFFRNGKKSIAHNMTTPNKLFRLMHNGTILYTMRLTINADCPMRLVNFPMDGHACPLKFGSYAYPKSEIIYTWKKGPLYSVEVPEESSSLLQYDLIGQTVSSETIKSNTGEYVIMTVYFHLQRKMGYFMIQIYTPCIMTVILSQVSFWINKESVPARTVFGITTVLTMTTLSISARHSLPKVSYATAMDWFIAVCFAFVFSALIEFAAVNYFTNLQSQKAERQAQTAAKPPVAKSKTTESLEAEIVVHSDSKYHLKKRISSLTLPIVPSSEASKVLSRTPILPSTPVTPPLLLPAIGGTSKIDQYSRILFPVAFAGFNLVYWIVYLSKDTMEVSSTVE
T1 sequence (P63079 whole entry): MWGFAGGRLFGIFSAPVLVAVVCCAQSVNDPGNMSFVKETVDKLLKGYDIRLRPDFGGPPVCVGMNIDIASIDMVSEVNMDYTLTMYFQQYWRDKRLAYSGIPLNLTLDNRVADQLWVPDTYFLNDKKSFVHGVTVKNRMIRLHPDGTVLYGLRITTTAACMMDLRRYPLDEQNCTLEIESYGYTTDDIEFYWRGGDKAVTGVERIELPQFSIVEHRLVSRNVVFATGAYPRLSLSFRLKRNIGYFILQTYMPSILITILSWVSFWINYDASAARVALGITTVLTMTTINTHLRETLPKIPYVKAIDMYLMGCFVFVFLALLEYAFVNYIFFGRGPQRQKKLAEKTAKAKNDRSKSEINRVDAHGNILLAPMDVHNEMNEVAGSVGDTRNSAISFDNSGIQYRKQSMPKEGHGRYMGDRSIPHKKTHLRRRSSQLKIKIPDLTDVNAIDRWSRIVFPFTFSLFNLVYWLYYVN

[2] = molecular target: T1, Gamma-aminobutyric acid receptor subunit alpha-6/beta-3/gamma-2; assay: Positive allosteric modulation of rat recombinant GABAA alpha6beta3alpha6-gamma2beta3 receptor expressed in Xenopus laevis oocytes assessed as increase in GABA-induced current amplitude at -80 mV holding potential under less potent phase in presence of GABA EC1 to 1.5 by two-electrode voltage-clamp assay; format: cell-based, Oocyte
[3] = molecular target: T2, Gamma-aminobutyric acid receptor subunit alpha-6/beta-3/gamma-2 (Rattus norvegicus) (UniProt P18508+P30191+P63079); assay: Positive allosteric modulation of rat recombinant GABAA alpha6beta3alpha6-gamma2beta3 receptor expressed in Xenopus laevis oocytes assessed as maximal current at -80 mV holding potential under more potent phase in presence of GABA EC1 to 1.5 by two-electrode voltage-clamp assay relative to control; format: cell-based; conditions: Oocyte, filed as positive allosteric modulator
[4] = molecular target: T2, Gamma-aminobutyric acid receptor subunit alpha-6/beta-3/gamma-2 (Rattus norvegicus); assay: Positive allosteric modulation of rat recombinant GABAA alpha6beta3alpha6-gamma2beta3 receptor expressed in Xenopus laevis oocytes assessed as maximal current under less potent phase in presence of GABA EC1 to 1.5 by two-electrode voltage-clamp assay relative to control; format: cell-based; conditions: Oocyte, filed as positive allosteric modulator
[5] = molecular target: T2, Gamma-aminobutyric acid receptor subunit alpha-6/beta-3/gamma-2 (Rattus norvegicus); assay: Positive allosteric modulation of rat recombinant GABAA alpha6beta3alpha6-gamma2beta3 receptor expressed in Xenopus laevis oocytes assessed as maximal efficacy at -80 mV holding potential at 1 nM in presence of GABA EC1 to 1.5 by two-electrode voltage-clamp assay; format: cell-based; conditions: Oocyte
[6] = molecular target: T2, Gamma-aminobutyric acid receptor subunit alpha-6/beta-3/gamma-2 (Rattus norvegicus); assay: Positive allosteric modulation of rat recombinant GABAA alpha6beta3alpha6-gamma2beta3 receptor expressed in Xenopus laevis oocytes assessed as maximal efficacy at -80 mV holding potential at 3 nM in presence of GABA EC1 to 1.5 by two-electrode voltage-clamp assay; format: cell-based; conditions: Oocyte
[7] = molecular target: T2, Gamma-aminobutyric acid receptor subunit alpha-6/beta-3/gamma-2 (Rattus norvegicus); assay: Positive allosteric modulation of rat recombinant GABAA alpha6beta3alpha6-gamma2beta3 receptor expressed in Xenopus laevis oocytes assessed as maximal efficacy at -80 mV holding potential at 10 nM in presence of GABA EC1 to 1.5 by two-electrode voltage-clamp assay; format: cell-based; conditions: Oocyte
[8] = molecular target: T2, Gamma-aminobutyric acid receptor subunit alpha-6/beta-3/gamma-2 (Rattus norvegicus); assay: Positive allosteric modulation of rat recombinant GABAA alpha6beta3alpha6-gamma2beta3 receptor expressed in Xenopus laevis oocytes assessed as maximal efficacy at -80 mV holding potential at 30 nM in presence of GABA EC1 to 1.5 by two-electrode voltage-clamp assay; format: cell-based; conditions: Oocyte
[9] = molecular target: T2, Gamma-aminobutyric acid receptor subunit alpha-6/beta-3/gamma-2 (Rattus norvegicus); assay: Positive allosteric modulation of rat recombinant GABAA alpha6beta3alpha6-gamma2beta3 receptor expressed in Xenopus laevis oocytes assessed as maximal efficacy at -80 mV holding potential at 100 nM in presence of GABA EC1 to 1.5 by two-electrode voltage-clamp assay; format: cell-based; conditions: Oocyte, filed as positive allosteric modulator
[10] = molecular target: T2, Gamma-aminobutyric acid receptor subunit alpha-6/beta-3/gamma-2 (Rattus norvegicus); assay: Positive allosteric modulation of rat recombinant GABAA alpha6beta3alpha6-gamma2beta3 receptor expressed in Xenopus laevis oocytes assessed as maximal efficacy at -80 mV holding potential at 300 nM in presence of GABA EC1 to 1.5 by two-electrode voltage-clamp assay; format: cell-based; conditions: Oocyte, filed as positive allosteric modulator
[11] = molecular target: T2, Gamma-aminobutyric acid receptor subunit alpha-6/beta-3/gamma-2 (Rattus norvegicus); assay: Positive allosteric modulation of rat recombinant GABAA alpha6beta3alpha6-gamma2beta3 receptor expressed in Xenopus laevis oocytes assessed as maximal efficacy at -80 mV holding potential at 1 uM in presence of GABA EC1 to 1.5 by two-electrode voltage-clamp assay; format: cell-based; conditions: Oocyte, filed as positive allosteric modulator
[12] = molecular target: T2, Gamma-aminobutyric acid receptor subunit alpha-6/beta-3/gamma-2 (Rattus norvegicus); assay: Positive allosteric modulation of rat recombinant GABAA alpha6beta3alpha6-gamma2beta3 receptor expressed in Xenopus laevis oocytes assessed as maximal efficacy at -80 mV holding potential at 3 uM in presence of GABA EC1 to 1.5 by two-electrode voltage-clamp assay; format: cell-based; conditions: Oocyte, filed as positive allosteric modulator
[13] = molecular target: T2, Gamma-aminobutyric acid receptor subunit alpha-6/beta-3/gamma-2 (Rattus norvegicus); assay: Positive allosteric modulation of rat recombinant GABAA alpha6beta3alpha6-gamma2beta3 receptor expressed in Xenopus laevis oocytes assessed as maximal efficacy at -80 mV holding potential at 10 uM in presence of GABA EC1 to 1.5 by two-electrode voltage-clamp assay; format: cell-based; conditions: Oocyte, filed as positive allosteric modulator
[14] = molecular target: T2, Gamma-aminobutyric acid receptor subunit alpha-6/beta-3/gamma-2 (Rattus norvegicus); assay: Positive allosteric modulation of rat recombinant GABAA alpha6beta3alpha6-gamma2beta3 receptor expressed in Xenopus laevis oocytes assessed as maximal efficacy at -80 mV holding potential at 30 uM in presence of GABA EC1 to 1.5 by two-electrode voltage-clamp assay; format: cell-based; conditions: Oocyte, filed as positive allosteric modulator
[15] = molecular target: T3, Gamma-aminobutyric acid receptor subunit alpha-1/beta-3/gamma-2 (Rattus norvegicus) (UniProt P18508+P62813+P63079); assay: Positive allosteric modulation of rat recombinant GABAA alpha1beta3alpha1-gamma2beta3 receptor expressed in Xenopus laevis oocytes assessed as maximal efficacy at -80 mV holding potential at 30 nM in presence of GABA EC1 to 1.5 by two-electrode voltage-clamp assay; format: cell-based; conditions: Oocyte
[16] = molecular target: T3, Gamma-aminobutyric acid receptor subunit alpha-1/beta-3/gamma-2 (Rattus norvegicus); assay: Positive allosteric modulation of rat recombinant GABAA alpha1beta3alpha1-gamma2beta3 receptor expressed in Xenopus laevis oocytes assessed as maximal efficacy at -80 mV holding potential at 100 nM in presence of GABA EC1 to 1.5 by two-electrode voltage-clamp assay; format: cell-based; conditions: Oocyte
[17] = molecular target: T3, Gamma-aminobutyric acid receptor subunit alpha-1/beta-3/gamma-2 (Rattus norvegicus); assay: Positive allosteric modulation of rat recombinant GABAA alpha1beta3alpha1-gamma2beta3 receptor expressed in Xenopus laevis oocytes assessed as maximal efficacy at -80 mV holding potential at 300 nM in presence of GABA EC1 to 1.5 by two-electrode voltage-clamp assay; format: cell-based; conditions: Oocyte
[18] = molecular target: T3, Gamma-aminobutyric acid receptor subunit alpha-1/beta-3/gamma-2 (Rattus norvegicus); assay: Positive allosteric modulation of rat recombinant GABAA alpha1beta3alpha1-gamma2beta3 receptor expressed in Xenopus laevis oocytes assessed as maximal efficacy at -80 mV holding potential at 30 uM in presence of GABA EC1 to 1.5 by two-electrode voltage-clamp assay; format: cell-based; conditions: Oocyte
[19] = molecular target: T2, Gamma-aminobutyric acid receptor subunit alpha-6/beta-3/gamma-2 (Rattus norvegicus); assay: Positive allosteric modulation of rat recombinant GABAA alpha6beta3gamma2 receptor expressed in Xenopus laevis oocytes assessed as potentiation of GABA-induced response under less potent current at -80 mV holding potential at 30 uM in presence of GABA EC1 to 1.5 by two-electrode voltage-clamp assay; format: cell-based; conditions: Oocyte, filed as positive allosteric modulator
[20] = molecular target: T4, Gamma-aminobutyric acid receptor subunit alpha-1/alpha-6/beta-3/gamma-2 (Rattus norvegicus) (UniProt P18508+P30191+P62813+P63079); assay: Positive allosteric modulation of rat recombinant GABAA alpha6beta3alpha1-gamma2beta3 receptor expressed in Xenopus laevis oocytes assessed as maximal efficacy at -80 mV holding potential at 30 nM in presence of GABA EC1 to 1.5 by two-electrode voltage-clamp assay; format: cell-based; conditions: Oocyte
[21] = molecular target: T4, Gamma-aminobutyric acid receptor subunit alpha-1/alpha-6/beta-3/gamma-2 (Rattus norvegicus); assay: Positive allosteric modulation of rat recombinant GABAA alpha6beta3alpha1-gamma2beta3 receptor expressed in Xenopus laevis oocytes assessed as maximal efficacy at -80 mV holding potential at 100 nM in presence of GABA EC1 to 1.5 by two-electrode voltage-clamp assay; format: cell-based; conditions: Oocyte
[22] = molecular target: T4, Gamma-aminobutyric acid receptor subunit alpha-1/alpha-6/beta-3/gamma-2 (Rattus norvegicus); assay: Positive allosteric modulation of rat recombinant GABAA alpha6beta3alpha1-gamma2beta3 receptor expressed in Xenopus laevis oocytes assessed as maximal efficacy at -80 mV holding potential at 300 nM in presence of GABA EC1 to 1.5 by two-electrode voltage-clamp assay; format: cell-based; conditions: Oocyte
[23] = molecular target: T4, Gamma-aminobutyric acid receptor subunit alpha-1/alpha-6/beta-3/gamma-2 (Rattus norvegicus); assay: Positive allosteric modulation of rat recombinant GABAA alpha6beta3alpha1-gamma2beta3 receptor expressed in Xenopus laevis oocytes assessed as maximal efficacy at -80 mV holding potential at 30 uM in presence of GABA EC1 to 1.5 by two-electrode voltage-clamp assay; format: cell-based; conditions: Oocyte, filed as positive allosteric modulator
[24] = molecular target: T2, Gamma-aminobutyric acid receptor subunit alpha-6/beta-3/gamma-2 (Rattus norvegicus); assay: Positive allosteric modulation of rat recombinant GABAA alpha6beta3gamma2 receptor expressed in Xenopus laevis oocytes assessed as potentiation of GABA-induced response under more potent current at -80 mV holding potential at 100 nM in presence of GABA EC1 to 1.5 by two-electrode voltage-clamp assay; format: cell-based; conditions: Oocyte, filed as positive allosteric modulator
[25] = molecular target: T2, Gamma-aminobutyric acid receptor subunit alpha-6/beta-3/gamma-2 (Rattus norvegicus); assay: Positive allosteric modulation of rat recombinant GABAA alpha6beta3gamma2 receptor expressed in Xenopus laevis oocytes assessed as potentiation of GABA-induced response under more potent current at -80 mV holding potential at 30 uM in presence of GABA EC1 to 1.5 by two-electrode voltage-clamp assay; format: cell-based; conditions: Oocyte, filed as positive allosteric modulator

COc1ccc(-n2nc3c4ccc(C(C)=O)cc4[nH]cc-3c2=O)cc1
EC50 [1]: 0.05 µM
EC50 [2]: 735 µM
%max [3]: 82%
%max [4]: 2210%
Efficacy [5]: 9%
Efficacy [6]: 13%
Efficacy [7]: 27%
Efficacy [8]: 31%
Efficacy [9]: 52%
Efficacy [10]: 67%
Efficacy [11]: 101%
Efficacy [12]: 127%
Efficacy [13]: 205%
Efficacy [14]: 426%
Efficacy [15]: 1%
Efficacy [16]: 1%
Efficacy [17]: 1%
Efficacy [18]: 10%
Activity [19]: 80%
Efficacy [20]: 3%
Efficacy [21]: 3%
Efficacy [22]: 11%
Efficacy [23]: 338%
Activity [24]: 62%
Activity [25]: 280%
